“And” between values parts separate entries of the source, which are not always exact repeats. Identical values can stand only once. Square brackets hold non-standard residues; d marks the D form. Peptide text beside a SMILES is read from it. Ac5c = NC1(C(=O)O)CCCC1
Tested on: Swiss mice, Sarcoma 180 sc, mean tumor weight T/C
Experiment: NCI In Vivo Anticancer Drug Screen. Data for tumor model Sarcoma 180 (subcutaneous) in Swiss mice
Details: endpoint: mean tumor weight, higher = larger tumour
Description: The antitumor activity of compounds was measured in mice bearing transplantable tumors. Survival or tumor size were measured and the results are expressed as the measurement made in the treated group (T) divided by the measurement made in the vehicle treated control group (C). The tumor model used in this assay is Sarcoma 180 (subcutaneous) in Swiss mice

[1] = dose: 50.0 mg/kg/injection, schedule: Q01DX007 (ip), vehicle: carboxymethylcellulose (CMC)
[2] = dose: 100.0 mg/kg/injection, schedule: Q01DX007 (ip), vehicle: carboxymethylcellulose (CMC)
[3] = dose: 200.0 mg/kg/injection, schedule: Q01DX007 (ip), vehicle: carboxymethylcellulose (CMC)
[4] = dose: 375.0 mg/kg/injection, schedule: Q01DX007 (ip), vehicle: carboxymethylcellulose (CMC)
[5] = dose: 400.0 mg/kg/injection, schedule: Q01DX007 (ip), vehicle: carboxymethylcellulose (CMC)
[6] = dose: 800.0 mg/kg/injection, schedule: Q01DX007 (ip), vehicle: carboxymethylcellulose (CMC)
[7] = dose: 25.0 mg/kg/injection, schedule: Q01DX007 (ip), vehicle: carboxymethylcellulose (CMC)
[8] = dose: 250.0 mg/kg/injection, schedule: Q01DX007 (ip), vehicle: carboxymethylcellulose (CMC)
[9] = dose: 500.0 mg/kg/injection, schedule: Q01DX007 (ip), vehicle: carboxymethylcellulose (CMC)

SMILES: OCC1OC(n2cnc3c(Cl)ncnc32)C(O)C1O (stereo not drawn)
- T/C (dose: 5.9 mg/kg/injection, schedule: Q01DX007 (ip), vehicle: carboxymethylcellulose (CMC)): 102 % of control
- T/C (dose: 11.75 mg/kg/injection, schedule: Q01DX007 (ip), vehicle: carboxymethylcellulose (CMC)): 104 % of control
- T/C (dose: 23.5 mg/kg/injection, schedule: Q01DX007 (ip), vehicle: carboxymethylcellulose (CMC)): 105 % of control
- T/C (dose: 47.0 mg/kg/injection, schedule: Q01DX007 (ip), vehicle: carboxymethylcellulose (CMC)): 113 % of control
- T/C [1]: 75 % of control
- T/C (dose: 94.0 mg/kg/injection, schedule: Q01DX007 (ip), vehicle: carboxymethylcellulose (CMC)): 38 % of control
- T/C [2]: 110 % of control
- T/C (dose: 187.5 mg/kg/injection, schedule: Q01DX007 (ip), vehicle: carboxymethylcellulose (CMC)): 29 % of control
- T/C [3]: 102 % of control
- T/C [4]: 36 % of control
- T/C [5]: 70 % of control
- T/C (dose: 750.0 mg/kg/injection, schedule: Q01DX007 (ip), vehicle: carboxymethylcellulose (CMC)): 36 % of control
- T/C [6]: 122 % of control

SMILES: O=C1C=CC(=Nc2ccc3c(c2)C(Br)c2ccccc2-3)O1 (stereo not drawn)
- T/C (dose: 16.5 mg/kg/injection, schedule: Q#A X014 (ip), vehicle: saline): 57 % of control and 75 % of control
- T/C (dose: 37.5 mg/kg/injection, schedule: Q#A X014 (ip), vehicle: saline): 100 % of control
- T/C (dose: 56.25 mg/kg/injection, schedule: Q#A X014 (ip), vehicle: saline): 73 % of control

SMILES: Cc1n[nH]c(=O)[nH]c1=O
- T/C (dose: 500.0 mg/kg/injection, schedule: Q01DX007 (ip), vehicle: other): 95 % of control
- T/C (dose: 750.0 mg/kg/injection, schedule: Q01DX007 (ip), vehicle: other): 83 % of control

SMILES: CC(=O)OCC(=O)[C@@]1(O)CC[C@H]2[C@@H]3CCC4=CC(=O)C=C[C@]4(C)[C@@]3(F)[C@@H](O)C[C@@]21C
- T/C (dose: 20.0 mg/kg/injection, schedule: Q#A X014 (sc), vehicle: steriod suspending solution): 32 % of control
- T/C (dose: 30.0 mg/kg/injection, schedule: Q#A X014 (sc), vehicle: steriod suspending solution): 32 % of control
- T/C (dose: 45.0 mg/kg/injection, schedule: Q#A X014 (sc), vehicle: steriod suspending solution): 30 % of control
- T/C (dose: 67.5 mg/kg/injection, schedule: Q#A X014 (sc), vehicle: steriod suspending solution): 24 % of control and 32 % of control

SMILES: COc1ccc2c(c1)CC[C@@H]1[C@@H]2CC[C@]2(C)C=CC[C@@H]12
- T/C (dose: 2.5 mg/kg/injection, schedule: Q01DX007 (sc), vehicle: steriod suspending solution): 104 % of control
- T/C (dose: 5.0 mg/kg/injection, schedule: Q01DX007 (sc), vehicle: steriod suspending solution): 91 % of control
- T/C (dose: 10.0 mg/kg/injection, schedule: Q01DX007 (sc), vehicle: steriod suspending solution): 75 % of control

SMILES: CC(=O)Nc1c(Cl)c(Cl)c2c(c1Cl)Cc1cc(Br)ccc1-2
- T/C (dose: 3.0 mg/kg/injection, schedule: Q01DX007 (ip), vehicle: carboxymethylcellulose (CMC)): 75 % of control
- T/C (dose: 6.0 mg/kg/injection, schedule: Q01DX007 (ip), vehicle: carboxymethylcellulose (CMC)): 74 % of control
- T/C (dose: 6.0 mg/kg/injection, schedule: Q01DX007 (ip), vehicle: other): 38 % of control
- T/C (dose: 9.0 mg/kg/injection, schedule: Q01DX007 (ip), vehicle: other): 69 % of control
- T/C (dose: 12.0 mg/kg/injection, schedule: Q01DX007 (ip), vehicle: carboxymethylcellulose (CMC)): 45 % of control
- T/C (dose: 13.0 mg/kg/injection, schedule: Q01DX007 (ip), vehicle: other): 46 % of control
- T/C (dose: 19.0 mg/kg/injection, schedule: Q01DX007 (ip), vehicle: other): 56 % of control
- T/C [7]: 63 % of control
- T/C (dose: 28.0 mg/kg/injection, schedule: Q01DX007 (ip), vehicle: other): 35 % of control
- T/C (dose: 41.0 mg/kg/injection, schedule: Q01DX007 (ip), vehicle: other): 62 % of control
- T/C [1]: 49 % of control
- T/C (dose: 63.0 mg/kg/injection, schedule: Q01DX007 (ip), vehicle: other): 33 % of control
- T/C [2]: 30 % of control

SMILES: CCCCSc1nc(N)nc2nc[nH]c12
- T/C (dose: 18.75 mg/kg/injection, schedule: Q#A X014 (ip), vehicle: methylcellulose (MC)): 89 % of control
- T/C (dose: 37.5 mg/kg/injection, schedule: Q#A X014 (ip), vehicle: methylcellulose (MC)): 78 % of control
- T/C (dose: 75.0 mg/kg/injection, schedule: Q#A X014 (ip), vehicle: methylcellulose (MC)): 102 % of control
- T/C (dose: 150.0 mg/kg/injection, schedule: Q#A X014 (ip), vehicle: methylcellulose (MC)): 59 % of control

SMILES: CC1CN1P(=O)(Oc1ccccc1)N1CC1C (stereo not drawn)
- T/C (dose: 27.5 mg/kg/injection, schedule: Q#A X014 (ip), vehicle: saline): 60 % of control and 67 % of control and 84 % of control
- T/C (dose: 62.5 mg/kg/injection, schedule: Q#A X014 (ip), vehicle: saline): 13 % of control and 20 % of control

SMILES: COC(=O)c1ccccc1NC(c1ccccn1)c1ccc2cccnc2c1O (stereo not drawn)
- T/C (dose: 62.0 mg/kg/injection, schedule: Q01DX007 (ip), vehicle: carboxymethylcellulose (CMC)): 115 % of control
- T/C (dose: 125.0 mg/kg/injection, schedule: Q01DX007 (ip), vehicle: carboxymethylcellulose (CMC)): 104 % of control
- T/C [8]: 88 % of control
- T/C [9]: 88 % of control

SMILES: CCCCSc1ncnc2nc[nH]c12
- T/C (dose: 44.0 mg/kg/injection, schedule: Q01DX007 (ip), vehicle: carboxymethylcellulose (CMC)): 55 % of control
- T/C (dose: 51.0 mg/kg/injection, schedule: Q01DX007 (ip), vehicle: carboxymethylcellulose (CMC)): 53 % of control
- T/C (dose: 93.0 mg/kg/injection, schedule: Q01DX007 (ip), vehicle: carboxymethylcellulose (CMC)): 41 % of control

SMILES: NCC(=O)NC1(C(=O)O)CCCC1 (H-Gly-[Ac5c]-OH)
- T/C (dose: 66.0 mg/kg/injection, schedule: Q01DX007 (ip), vehicle: saline): 57 % of control
- T/C (dose: 100.0 mg/kg/injection, schedule: Q01DX007 (ip), vehicle: saline): 103 % of control
- T/C (dose: 150.0 mg/kg/injection, schedule: Q01DX007 (ip), vehicle: saline): 45 % of control
- T/C (dose: 225.0 mg/kg/injection, schedule: Q01DX007 (ip), vehicle: saline): 47 % of control

SMILES: Cc1cc(C(=O)NN)c(C#N)c(=O)[nH]1
- T/C (dose: 111.0 mg/kg/injection, schedule: Q01DX007 (ip), vehicle: carboxymethylcellulose (CMC)): 82 % of control
- T/C (dose: 166.0 mg/kg/injection, schedule: Q01DX007 (ip), vehicle: carboxymethylcellulose (CMC)): 87 % of control
- T/C [8]: 30 % of control
- T/C [4]: 46 % of control

SMILES: C[C@]12CC[C@H](O)CC1=CC[C@@H]1[C@@H]2[C@@H](O)C[C@@]2(C)[C@H]1CC[C@]2(C)O
- T/C (dose: 25.0 mg/kg/injection, schedule: Q#A X014 (sc), vehicle: steriod suspending solution): 87 % of control
- T/C (dose: 100.0 mg/kg/injection, schedule: Q#A X014 (sc), vehicle: steriod suspending solution): 113 % of control
- T/C (dose: 200.0 mg/kg/injection, schedule: Q#A X014 (sc), vehicle: steriod suspending solution): 76 % of control

SMILES: CCC(=O)O[C@H]1CC[C@H]2[C@@H]3CCC4=CC(=O)CC[C@]4(C)[C@H]3[C@@H](O)C[C@]12C
- T/C (dose: 12.5 mg/kg/injection, schedule: Q#A X014 (sc), vehicle: steriod suspending solution): 96 % of control
- T/C (dose: 125.0 mg/kg/injection, schedule: Q#A X014 (sc), vehicle: steriod suspending solution): 88 % of control
- T/C (dose: 250.0 mg/kg/injection, schedule: Q#A X014 (sc), vehicle: steriod suspending solution): 94 % of control

SMILES: COS(C)(=O)=O
- T/C [7]: 89 % of control
- T/C [1]: 66 % of control

SMILES: CC(=O)Nc1c(Cl)c(Cl)c2c(c1Cl)Cc1cc(Cl)c(Cl)cc1-2
- T/C (dose: 3.1 mg/kg/injection, schedule: Q01DX007 (ip), vehicle: carboxymethylcellulose (CMC)): 35 % of control
- T/C (dose: 6.2 mg/kg/injection, schedule: Q01DX007 (ip), vehicle: carboxymethylcellulose (CMC)): 52 % of control
- T/C (dose: 12.5 mg/kg/injection, schedule: Q01DX007 (ip), vehicle: carboxymethylcellulose (CMC)): 48 % of control and 54 % of control
- T/C (dose: 21.0 mg/kg/injection, schedule: Q01DX007 (ip), vehicle: other): 63 % of control
- T/C (dose: 32.0 mg/kg/injection, schedule: Q01DX007 (ip), vehicle: other): 39 % of control
- T/C (dose: 33.0 mg/kg/injection, schedule: Q01DX007 (ip), vehicle: other): 49 % of control
- T/C (dose: 48.0 mg/kg/injection, schedule: Q01DX007 (ip), vehicle: other): 77 % of control
- T/C (dose: 49.0 mg/kg/injection, schedule: Q01DX007 (ip), vehicle: other): 40 % of control
- T/C (dose: 73.0 mg/kg/injection, schedule: Q01DX007 (ip), vehicle: other): 31 % of control
- T/C (dose: 250.0 mg/kg/injection, schedule: Q01DX007 (ip), vehicle: other): 21 % of control and 43 % of control

SMILES: c1ccc2cc3c(cc2c1)Cn1c-3nc2ccccc21
- T/C [7]: 76 % of control
- T/C [1]: 86 % of control
- T/C [3]: 53 % of control and 57 % of control
- T/C [5]: 54 % of control
- T/C [9]: 27 % of control and 34 % of control
- T/C [6]: 38 % of control
